The text below walks through data of US6407122B1, “Amino-benzothiazole derivatives” (Pharmacia & Upjohn S.p.A., priority 1997, dated 2002).

In this test the test system is mixed cortical neuronal cultures. The test can be described thus: Neuroprotection against NMDA (500 μM) toxicity in mixed cortical neuronal cultures, Trypan Blue Dye Exclusion Test. In kind it is cell-based. The settings on record: Rattus norvegicus, Cortical neurone; cultured cortical neurons from foetal rats; 3 min preincubation, 20 min exposure to NMDA 500 μM, viability after 24 hours; mean of at least 3 different experiments; read-out: EC50 (neuroprotective effect). As for the experimental part:
The efficacy of the compounds of the invention as neuroprotective agents was evaluated in mixed cortical neuronal cultures, following the method reported below.
Mixed cortical neuronal cultures from foetal rats at 16 days of gestation were prepared as described by Choi (j. Neur. Sci. 7: 357-368, 1987). Briefly dissociated cells were plated on poly-L-lysine coated multiwell plates at density of 1*10^5 cells/cm^2 in MEM with Earle's salts supplemented with 21 mM D-glucose, 2 mM L-glutamine, 50 μg/ml Streptomicin, 50 IU Penicillin, 10% Foetal Calf Serum and 10% Horse Serum. Cultures were kept at 37° C., 5% CO2 and survived about 5 weeks. After 7 days in vitro, astrocites proliferation was inhibited by adding 10 μM Cytosine Arabinoside for 48 hours; the medium was subsequently substituted twice a week with a fresh medium without foetal call serum (Hatley, J. Pharm. and Exp. Ther. 250 (II);752-758, 1989).
Only nature cortical cultures, from 14 DIV on, were used for the study. Experiments were performed at 25° C. as follows: cells were washed once with a Locke's buffer, (128 mM NaCl, […], 1.2 mM Na2HPO4, 2.7 mM CaCl2, 20 mM Hepes and 10 mM D-glucose) pH=7.4, then preincubated with the test compounds for 3 min. followed by a 20 min. exposure to N-methyl-D-aspartate (NMDA) (500 μM).
The incubation was stopped by removing Locke's buffer and substituting the conditioned medium. […]

On to `OC(CN1CCC(Cc2ccc(F)cc2)CC1)c1ccc(Cl)cc1` (centres unmarked) [Eliprodil], for which the EC50 (commonly the concentration needed to bring the measured effect to its halfway point) stood at 2260 nM.

Consider `Nc1nc2ccc(CCN3CCC(Cc4ccccc4)CC3)cc2s1` [Example 15, 1-(2-Amino-benzothiazol-6-yl)-2-(4-benzyl-piperidin-1-yl)-ethane], for which the 50% effective concentration (EC50) turned out to be 640 nM.
